Measurements taken from the supplement of paper PMC11665569.

What was measured:
Conditions in all cases: treatment time: 5 days
[1] = system: SW1573
Method: (§1)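 CCK-8 viability of KRAS G12C-mutant cancer cell lines transfected with control, YAP/TAZ or TEAD1-4 siRNAs and treated with KRAS G12C inhibitors for 5 days; IC50 fitted in Prism after normalising absorbance at 450 nm to vehicle control.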

[2] = system: H1373
Method: as §1

[3] = system: KYSE410
Method: as §1

[4] = system: H2030
Method: as §1

[5] = system: H358
Method: as §1

[6] = system: H1792
Method: as §1

[7] = system: MIAPACA2
Method: as §1

[8] = system: KYSE410; assay: relative viability (fraction of vehicle control); higher = more viable / less inhibited
Method: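 CCK-8 viability of KYSE410 cells transfected with control, YAP/TAZ or TEAD1-4 siRNAs and treated with KRAS G12C inhibitors for 5 days. Values are normalised to vehicle control.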

[9] = system: MIAPACA2; assay: as above
Method: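 CCK-8 viability of MIAPACA2 cells with empty vector or constitutively active YAP S127A, treated with KRAS G12C inhibitors for 5 days, normalised to vehicle control.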

C=C(F)C(=O)N1CCN(c2nc(OC[C@@H]3CCCN3C)nc3c2CCN(c2cccc4cccc(Cl)c24)C3)C[C@@H]1CC#N [MRTX849]
Conditions	IC50 (cell viability, 5 days) [nM]	relative viability
[1], siRNA knockdown (Con = control): Con	926	–
[1], siRNA knockdown (Con = control): TEAD1234_si1	7.3	–
[1], siRNA knockdown (Con = control): TEAD1234_si2	4.3	–
[2], siRNA knockdown (Con = control): Con	82.1	–
[2], siRNA knockdown (Con = control): YAP_WWTR1_si1	19.3	–
[2], siRNA knockdown (Con = control): YAP_WWTR1_si2	11.4	–
[3], siRNA knockdown (Con = control): Con	1260	–
[3], siRNA knockdown (Con = control): TEAD1234_si1	415	–
[3], siRNA knockdown (Con = control): TEAD1234_si2	83.3	–
[3], siRNA knockdown (Con = control): YAP_WWTR1_si1	80	–
[3], siRNA knockdown (Con = control): YAP_WWTR1_si2	27.2	–
[4], siRNA knockdown (Con = control): Con	1500	–
[4], siRNA knockdown (Con = control): TEAD1234_si2	28	–
[5], siRNA knockdown (Con = control): Con	9.45	–
[5], siRNA knockdown (Con = control): TEAD1234_si1	5.61	–
[5], siRNA knockdown (Con = control): TEAD1234_si2	3.74	–
[5], siRNA knockdown (Con = control): YAP_WWTR1_si1	5.52	–
[5], siRNA knockdown (Con = control): YAP_WWTR1_si2	5.33	–
[6], siRNA knockdown (Con = control): Con	304	–
[6], siRNA knockdown (Con = control): YAP_WWTR1_si1	55	–
[6], siRNA knockdown (Con = control): YAP_WWTR1_si2	45.6	–
[7], siRNA knockdown (Con = control): Con	115	–
[7], siRNA knockdown (Con = control): TEAD1234_si1	52.6	–
[7], siRNA knockdown (Con = control): TEAD1234_si2	49.4	–
[7], siRNA knockdown (Con = control): YAP_WWTR1_si1	34.4	–
[7], siRNA knockdown (Con = control): YAP_WWTR1_si2	60.6	–
[8], log10 concentration (uM): 0, siRNA knockdown: TEAD1-4 siRNA 1	–	0.319
[8], log10 concentration (uM): 0, siRNA knockdown: TEAD1-4 siRNA 2	–	0.212
[8], log10 concentration (uM): 0, siRNA knockdown: YAP/TAZ siRNA 1	–	0.273
[8], log10 concentration (uM): 0, siRNA knockdown: YAP/TAZ siRNA 2	–	0.298
[8], log10 concentration (uM): 0, siRNA knockdown: negative control siRNA	–	0.646
[8], log10 concentration (uM): 0.69897, siRNA knockdown: TEAD1-4 siRNA 1	–	0.0217
[8], log10 concentration (uM): 0.69897, siRNA knockdown: TEAD1-4 siRNA 2	–	0.0146
[8], log10 concentration (uM): 0.69897, siRNA knockdown: YAP/TAZ siRNA 1	–	0.00876
[8], log10 concentration (uM): 0.69897, siRNA knockdown: YAP/TAZ siRNA 2	–	0.00963
[8], log10 concentration (uM): 0.69897, siRNA knockdown: negative control siRNA	–	0.0324
[8], log10 concentration (uM): -0.30103, siRNA knockdown: TEAD1-4 siRNA 1	–	0.419
[8], log10 concentration (uM): -0.30103, siRNA knockdown: TEAD1-4 siRNA 2	–	0.317
[8], log10 concentration (uM): -0.30103, siRNA knockdown: YAP/TAZ siRNA 1	–	0.381
[8], log10 concentration (uM): -0.30103, siRNA knockdown: YAP/TAZ siRNA 2	–	0.395
[8], log10 concentration (uM): -0.30103, siRNA knockdown: negative control siRNA	–	0.715
[8], log10 concentration (uM): -1, siRNA knockdown: TEAD1-4 siRNA 1	–	0.582
[8], log10 concentration (uM): -1, siRNA knockdown: TEAD1-4 siRNA 2	–	0.45
[8], log10 concentration (uM): -1, siRNA knockdown: YAP/TAZ siRNA 1	–	0.481
[8], log10 concentration (uM): -1, siRNA knockdown: YAP/TAZ siRNA 2	–	0.445
[8], log10 concentration (uM): -1, siRNA knockdown: negative control siRNA	–	0.788
[8], log10 concentration (uM): -1.30103, siRNA knockdown: TEAD1-4 siRNA 1	–	0.704
[8], log10 concentration (uM): -1.30103, siRNA knockdown: TEAD1-4 siRNA 2	–	0.572
[8], log10 concentration (uM): -1.30103, siRNA knockdown: YAP/TAZ siRNA 1	–	0.559
[8], log10 concentration (uM): -1.30103, siRNA knockdown: YAP/TAZ siRNA 2	–	0.525
[8], log10 concentration (uM): -1.30103, siRNA knockdown: negative control siRNA	–	0.814
[8], log10 concentration (uM): -2, siRNA knockdown: TEAD1-4 siRNA 1	–	0.871
[8], log10 concentration (uM): -2, siRNA knockdown: TEAD1-4 siRNA 2	–	0.648
[8], log10 concentration (uM): -2, siRNA knockdown: YAP/TAZ siRNA 1	–	0.767
[8], log10 concentration (uM): -2, siRNA knockdown: YAP/TAZ siRNA 2	–	0.735
[8], log10 concentration (uM): -2, siRNA knockdown: negative control siRNA	–	0.942
[8], log10 concentration (uM): -2.30103, siRNA knockdown: TEAD1-4 siRNA 1	–	0.873
[8], log10 concentration (uM): -2.30103, siRNA knockdown: TEAD1-4 siRNA 2	–	0.793
[8], log10 concentration (uM): -2.30103, siRNA knockdown: YAP/TAZ siRNA 1	–	0.855
[8], log10 concentration (uM): -2.30103, siRNA knockdown: YAP/TAZ siRNA 2	–	0.868
[8], log10 concentration (uM): -2.30103, siRNA knockdown: negative control siRNA	–	0.937
[8], log10 concentration (uM): -3, siRNA knockdown: TEAD1-4 siRNA 1	–	0.888
[8], log10 concentration (uM): -3, siRNA knockdown: TEAD1-4 siRNA 2	–	0.869
[8], log10 concentration (uM): -3, siRNA knockdown: YAP/TAZ siRNA 1	–	0.936
[8], log10 concentration (uM): -3, siRNA knockdown: YAP/TAZ siRNA 2	–	0.915
[8], log10 concentration (uM): -3, siRNA knockdown: negative control siRNA	–	0.981
[8], log10 concentration (uM): -4, siRNA knockdown: TEAD1-4 siRNA 1	–	1.04
[8], log10 concentration (uM): -4, siRNA knockdown: TEAD1-4 siRNA 2	–	0.951
[8], log10 concentration (uM): -4, siRNA knockdown: YAP/TAZ siRNA 1	–	0.946
[8], log10 concentration (uM): -4, siRNA knockdown: YAP/TAZ siRNA 2	–	1.01
[8], log10 concentration (uM): -4, siRNA knockdown: negative control siRNA	–	0.987
[9], log10 concentration (uM): 0, ectopic expression: YAP S127A	–	0.696
[9], log10 concentration (uM): 0, ectopic expression: empty vector (YAP experiment)	–	0.0786
[9], log10 concentration (uM): 0.69897, ectopic expression: YAP S127A	–	0.15
[9], log10 concentration (uM): 0.69897, ectopic expression: empty vector (YAP experiment)	–	0.0127
[9], log10 concentration (uM): -0.30103, ectopic expression: YAP S127A	–	0.687
[9], log10 concentration (uM): -0.30103, ectopic expression: empty vector (YAP experiment)	–	0.0877
[9], log10 concentration (uM): -1, ectopic expression: YAP S127A	–	0.902
[9], log10 concentration (uM): -1, ectopic expression: empty vector (YAP experiment)	–	0.217
[9], log10 concentration (uM): -1.30103, ectopic expression: YAP S127A	–	0.924
[9], log10 concentration (uM): -1.30103, ectopic expression: empty vector (YAP experiment)	–	0.309
[9], log10 concentration (uM): -2, ectopic expression: YAP S127A	–	0.979
[9], log10 concentration (uM): -2, ectopic expression: empty vector (YAP experiment)	–	0.917
[9], log10 concentration (uM): -2.30103, ectopic expression: YAP S127A	–	1.01
[9], log10 concentration (uM): -2.30103, ectopic expression: empty vector (YAP experiment)	–	0.986
[9], log10 concentration (uM): -3, ectopic expression: YAP S127A	–	1.06
[9], log10 concentration (uM): -3, ectopic expression: empty vector (YAP experiment)	–	0.964
[9], log10 concentration (uM): -4, ectopic expression: YAP S127A	–	0.993
[9], log10 concentration (uM): -4, ectopic expression: empty vector (YAP experiment)	–	0.997
